“Also recorded” adds a separate entry of the source.
Tests used:
[1] = system: MET amplified NSCLC or other MET positive solid tumors; test: Preliminary efficacy by RECIST v1.1, Module 1 Part B cohort 2 (MET basket); type: in vivo, human; details: 5/5 patients, 200 or 250 mg BID
Description: (§1) The starting dose was 100 mg BID.
Safety analyses were descriptive.

[2] = target: T1, OCT-2 (Homo sapiens, UniProt O15244); test: Renal function markers (creatinine, Cystatin C, KIM1) as on-target OCT-2 inhibition; type: in vivo
T1 construct: from tissue; host or cells: patients in vivo (endogenous transporter; serum, plasma and urine markers measured)
T1 sequence (O15244 1-555): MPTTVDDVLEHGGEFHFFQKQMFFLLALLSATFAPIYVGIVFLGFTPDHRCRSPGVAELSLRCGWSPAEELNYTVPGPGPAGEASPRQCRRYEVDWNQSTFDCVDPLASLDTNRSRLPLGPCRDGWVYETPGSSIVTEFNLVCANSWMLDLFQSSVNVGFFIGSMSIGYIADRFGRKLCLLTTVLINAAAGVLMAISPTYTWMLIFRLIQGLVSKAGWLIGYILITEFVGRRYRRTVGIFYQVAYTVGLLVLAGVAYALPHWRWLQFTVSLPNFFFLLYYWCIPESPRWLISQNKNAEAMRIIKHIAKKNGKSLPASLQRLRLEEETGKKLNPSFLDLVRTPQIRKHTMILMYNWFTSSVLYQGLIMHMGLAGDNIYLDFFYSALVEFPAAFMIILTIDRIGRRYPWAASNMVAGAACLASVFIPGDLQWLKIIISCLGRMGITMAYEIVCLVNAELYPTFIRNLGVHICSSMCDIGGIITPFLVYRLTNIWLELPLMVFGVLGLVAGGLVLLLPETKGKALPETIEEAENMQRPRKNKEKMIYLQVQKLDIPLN
Description: as §1

[3] = target: T2, phosphorylated MET (Homo sapiens, UniProt P08581, DEL963-1009); test: Paired biopsy analysis, total and phosphorylated MET by immunohistochemistry; type: in vivo; details: one patient, NSCLC with MET exon 14 skipping mutation, 200 mg BID
T2 construct: from tissue; host or cells: paired tumour biopsies (baseline and on-treatment) of an NSCLC patient
Description: Analysis was performed using PKSolver to define Cmax, trough concentration (Ctrough), AUC∞, AUC0-last, Vd, clearance, elimination half-life (t½), and Tmax of OMO-1.[24] In the paired biopsy analysis, expression of total MET and phosphorylated MET was performed by immunohistochemistry.

[4] = system: EGFR mutated NSCLC with acquired MET amplification; type: in vivo, human; details: one patient, 200 mg BID with EGFR TKI; led to interruption
Description: Module 2 (OMO-1 in combination with EGFR TKI) investigated the preliminary efficacy of OMO-1 in patients with activating EGFR mutated NSCLC and an acquired MET amplification after EGFR TKI treatment.

[5] = set-up: method as in doi:10.1158/1538-7445.am2015-ct309; details: healthy human volunteers ref 26; cited from earlier work
[6] = system: MET-activated tumor models; details: preclinical ref 21; cited from earlier work

FC(F)(c1ccc2ncccc2c1)c1nnc2ccc(-c3ccncc3)nn12 [OMO-1]
clinical benefit [1]: No clinical benefit of any length; also recorded: no clinical efficacy
cystatin C and KIM-1, additional markers for renal function ([2]; monotherapy OMO-1): did also not identify any significant renal function issues
overall mean creatinine levels ([2]; throughout the study): within the normal ranges
phosphorylated MET in on-treatment biopsy [3]: near-complete inhibition
total MET levels in on-treatment biopsy [3]: without affecting total MET levels
serum Cystatin C increase from baseline [4]: > 1.5 fold
renal toxicity [5]: no renal toxicity was observed
tumor growth [6]: complete inhibition of tumor growth
